Measured values taken from patent US10457654B2 (GENENTECH, INC., priority 2017, dated 2019).
Where a name gives a salt, the structure may show the parent alone.

Columns and labels:
hNav1.7 [1] = target: T1, hNav1.7 (Homo sapiens (Human), UniProt Q15858); assay: Tritiated compound binding to membranes from cells expressing hNav1.7 and the β1 subunit, modified protocol (LBA, Ex. 243B); conditions: 300 pM [3H]compound, room temperature, read-out: Nav1.7 LBA (Ex. 243B) IC50
Target sequence in this assay (Q15858 whole entry, looked up): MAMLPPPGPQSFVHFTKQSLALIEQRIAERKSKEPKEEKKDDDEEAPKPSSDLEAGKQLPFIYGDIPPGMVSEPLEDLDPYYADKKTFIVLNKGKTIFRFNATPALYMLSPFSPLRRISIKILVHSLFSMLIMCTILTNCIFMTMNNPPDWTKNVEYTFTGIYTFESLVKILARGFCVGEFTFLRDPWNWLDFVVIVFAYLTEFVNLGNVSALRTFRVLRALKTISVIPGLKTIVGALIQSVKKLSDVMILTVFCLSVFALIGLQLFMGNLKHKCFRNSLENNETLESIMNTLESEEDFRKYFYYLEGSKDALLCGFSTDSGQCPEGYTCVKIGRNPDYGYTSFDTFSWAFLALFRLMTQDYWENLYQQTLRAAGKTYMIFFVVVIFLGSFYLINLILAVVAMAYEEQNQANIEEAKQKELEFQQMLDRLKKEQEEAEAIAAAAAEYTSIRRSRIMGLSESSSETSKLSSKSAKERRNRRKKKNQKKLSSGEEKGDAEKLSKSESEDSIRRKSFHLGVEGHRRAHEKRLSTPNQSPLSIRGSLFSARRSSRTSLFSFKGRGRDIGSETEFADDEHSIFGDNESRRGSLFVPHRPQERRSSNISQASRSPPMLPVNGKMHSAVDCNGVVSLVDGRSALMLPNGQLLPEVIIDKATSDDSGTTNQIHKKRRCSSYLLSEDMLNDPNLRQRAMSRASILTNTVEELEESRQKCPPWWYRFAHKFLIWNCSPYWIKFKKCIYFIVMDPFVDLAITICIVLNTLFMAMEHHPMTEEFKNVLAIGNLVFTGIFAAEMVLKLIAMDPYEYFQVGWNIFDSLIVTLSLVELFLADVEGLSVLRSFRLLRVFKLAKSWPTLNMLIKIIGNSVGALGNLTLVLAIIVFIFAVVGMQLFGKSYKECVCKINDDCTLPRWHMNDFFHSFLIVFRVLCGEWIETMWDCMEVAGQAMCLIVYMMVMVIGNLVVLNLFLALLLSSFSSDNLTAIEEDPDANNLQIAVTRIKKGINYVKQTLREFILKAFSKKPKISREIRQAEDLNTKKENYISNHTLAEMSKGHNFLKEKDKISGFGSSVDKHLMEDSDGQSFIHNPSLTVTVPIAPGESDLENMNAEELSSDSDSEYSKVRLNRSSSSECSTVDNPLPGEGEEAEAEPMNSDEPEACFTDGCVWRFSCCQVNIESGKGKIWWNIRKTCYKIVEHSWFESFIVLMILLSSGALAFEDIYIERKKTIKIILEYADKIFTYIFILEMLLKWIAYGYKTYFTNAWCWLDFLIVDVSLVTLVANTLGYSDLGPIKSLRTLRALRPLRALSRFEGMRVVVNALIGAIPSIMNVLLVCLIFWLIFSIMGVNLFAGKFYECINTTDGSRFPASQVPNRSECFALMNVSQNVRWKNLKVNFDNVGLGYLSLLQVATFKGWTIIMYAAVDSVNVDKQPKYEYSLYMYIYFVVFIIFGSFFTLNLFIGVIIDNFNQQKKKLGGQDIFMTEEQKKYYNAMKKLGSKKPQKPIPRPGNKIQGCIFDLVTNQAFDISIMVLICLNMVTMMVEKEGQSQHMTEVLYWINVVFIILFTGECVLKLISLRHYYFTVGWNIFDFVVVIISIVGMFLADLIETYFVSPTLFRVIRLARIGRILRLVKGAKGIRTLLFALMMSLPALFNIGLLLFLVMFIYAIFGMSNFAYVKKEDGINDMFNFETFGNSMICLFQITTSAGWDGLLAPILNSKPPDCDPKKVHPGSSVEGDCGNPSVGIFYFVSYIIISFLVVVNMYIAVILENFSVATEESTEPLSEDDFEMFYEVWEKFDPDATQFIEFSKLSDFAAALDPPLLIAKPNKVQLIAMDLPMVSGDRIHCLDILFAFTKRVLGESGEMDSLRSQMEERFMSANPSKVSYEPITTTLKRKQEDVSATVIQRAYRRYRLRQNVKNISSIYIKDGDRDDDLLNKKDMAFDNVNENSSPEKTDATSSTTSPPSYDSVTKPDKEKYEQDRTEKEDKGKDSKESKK
Target sequence in this assay (Q07699 whole entry partner, looked up): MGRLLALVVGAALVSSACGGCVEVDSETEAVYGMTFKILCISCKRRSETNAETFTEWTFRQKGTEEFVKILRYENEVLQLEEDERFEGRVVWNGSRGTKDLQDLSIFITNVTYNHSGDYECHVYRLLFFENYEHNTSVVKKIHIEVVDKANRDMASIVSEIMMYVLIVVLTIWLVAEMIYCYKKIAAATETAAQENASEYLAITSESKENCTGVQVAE

hNav1.7 [2] = target: T1, hNav1.7; assay: Patch voltage clamp electrophysiology assay (EP), Syncropatch 384PE, CHO cells expressing Nav1.7; assay type: cell-based; conditions: holding potential -50 mV; […] compound incubation; read-out: EP_SP hNav1.7 (Ex. 243B) IC50
Procedure: Electrophysiological Assay (EP) (In Vitro Assay)
The following voltage clamp electrophysiology studies were performed on representative compounds using cells heterologously expressing Nav1.7 or Nav1.5 channels. cDNAs for Nav1.7 (NM_002977) and Nav1.5 (AC137587) were stably expressed in Chinese Hamstr Ovary (CHO) cells and CHL (Chinese Hamster Lung) cells respectively. […] Internal solution consists of (in mM): 110 […], 10 […], 20 EGTA, and 10 Hepes (pH adjusted to 7.2); and external solution contains (in mM): 60 NMDG, 80 NaCl, 4 KCl, 1 MgCl2, 2 CaCl2, 2 D-Glucose monohydrate, 10 Hepes (pH adjusted to 7.4 with NaOH).
The chip is moved into the measuring head and the instrument primes the chip with external and internal solutions. […] cells are added to the chip from a cell hotel, and a negative pressure of −50 mBar is applied to form a seal. Following treatment with seal enhancer solution and wash-off with external solution, negative pressure of −250 mbar is applied for 1 second to achieve the whole-cell configuration, followed by three washing steps in external solution. 20 μl of compounds is added to 40 μl in each well (1:3 dilution of compounds), and after mixing, 20 μl is removed so the volume is retained at 40 μl.
For voltage protocol, an holding potential of −50 mV is applied during the whole experiment. A depolarizing step is applied to −10 mV for 10 ms, followed by a hyperpolarization step to −150 mV for 20 ms to allow channel recovery from inactivation. A second depolarizing step is applied from −150 mV to −10 mV for 10 ms, where currents were measured to derive blocking effects of compounds. Inhibition is determined based on 7.5 min of compound incubation.
Target sequence in this assay (Q15858 other isoform, or with tags, fused parts or gaps): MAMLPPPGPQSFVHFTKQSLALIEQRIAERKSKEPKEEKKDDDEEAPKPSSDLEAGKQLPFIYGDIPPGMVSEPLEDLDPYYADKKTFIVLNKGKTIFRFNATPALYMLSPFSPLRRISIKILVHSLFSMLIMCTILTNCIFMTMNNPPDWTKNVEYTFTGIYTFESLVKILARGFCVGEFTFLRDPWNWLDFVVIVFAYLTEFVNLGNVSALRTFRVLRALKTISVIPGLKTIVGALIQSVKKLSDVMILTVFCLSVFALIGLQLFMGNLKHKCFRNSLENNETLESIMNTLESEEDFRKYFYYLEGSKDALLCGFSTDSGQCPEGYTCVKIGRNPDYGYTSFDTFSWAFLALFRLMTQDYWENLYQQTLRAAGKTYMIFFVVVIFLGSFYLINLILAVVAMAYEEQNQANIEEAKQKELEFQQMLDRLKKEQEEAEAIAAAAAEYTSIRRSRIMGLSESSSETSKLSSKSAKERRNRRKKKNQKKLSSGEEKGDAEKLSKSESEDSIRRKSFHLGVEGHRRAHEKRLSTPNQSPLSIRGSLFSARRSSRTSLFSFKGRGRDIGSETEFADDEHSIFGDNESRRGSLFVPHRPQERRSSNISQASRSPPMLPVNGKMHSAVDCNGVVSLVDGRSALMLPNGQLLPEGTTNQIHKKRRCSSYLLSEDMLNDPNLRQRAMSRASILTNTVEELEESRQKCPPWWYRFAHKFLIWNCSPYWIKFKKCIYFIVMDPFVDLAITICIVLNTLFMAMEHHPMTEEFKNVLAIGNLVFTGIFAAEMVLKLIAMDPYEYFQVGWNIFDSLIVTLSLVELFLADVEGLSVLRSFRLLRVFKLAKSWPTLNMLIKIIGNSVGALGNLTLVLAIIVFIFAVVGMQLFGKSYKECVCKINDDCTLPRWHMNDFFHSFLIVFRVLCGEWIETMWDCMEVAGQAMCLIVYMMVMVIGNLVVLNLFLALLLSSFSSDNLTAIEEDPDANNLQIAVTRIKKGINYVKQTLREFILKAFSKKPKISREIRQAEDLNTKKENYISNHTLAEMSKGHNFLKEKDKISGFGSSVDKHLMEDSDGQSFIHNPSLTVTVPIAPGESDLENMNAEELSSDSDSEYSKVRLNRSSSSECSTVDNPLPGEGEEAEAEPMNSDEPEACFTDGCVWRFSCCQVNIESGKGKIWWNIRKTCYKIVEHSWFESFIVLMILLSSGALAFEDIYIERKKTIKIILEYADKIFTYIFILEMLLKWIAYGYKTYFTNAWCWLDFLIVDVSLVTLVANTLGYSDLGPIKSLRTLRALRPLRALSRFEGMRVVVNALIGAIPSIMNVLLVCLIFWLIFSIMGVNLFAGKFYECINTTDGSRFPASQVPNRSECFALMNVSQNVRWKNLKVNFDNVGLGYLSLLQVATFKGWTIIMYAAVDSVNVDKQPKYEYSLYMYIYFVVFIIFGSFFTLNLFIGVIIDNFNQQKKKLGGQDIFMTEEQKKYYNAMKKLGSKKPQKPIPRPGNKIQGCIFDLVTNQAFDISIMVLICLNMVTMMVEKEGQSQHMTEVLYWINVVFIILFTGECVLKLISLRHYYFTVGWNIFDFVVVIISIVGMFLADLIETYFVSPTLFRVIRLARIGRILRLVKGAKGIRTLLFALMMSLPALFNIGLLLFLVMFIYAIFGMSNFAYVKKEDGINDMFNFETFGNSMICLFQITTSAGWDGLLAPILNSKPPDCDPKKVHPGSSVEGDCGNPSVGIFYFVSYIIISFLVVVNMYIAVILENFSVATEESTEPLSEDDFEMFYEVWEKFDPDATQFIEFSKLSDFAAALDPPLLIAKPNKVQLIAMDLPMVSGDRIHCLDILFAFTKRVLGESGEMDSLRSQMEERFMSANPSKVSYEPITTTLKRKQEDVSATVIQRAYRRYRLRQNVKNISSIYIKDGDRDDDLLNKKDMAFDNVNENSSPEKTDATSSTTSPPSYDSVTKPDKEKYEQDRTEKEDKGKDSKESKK

Molecule | IC50 (hNav1.7 [1]) [nM] | IC50 (hNav1.7 [2]) [nM]
5-Chloro-4-(((1S,2S)-2-(cyclobutyl(methyl)amino)cyclohexyl)amino)-2-fluoro-N-(thiazol-2-yl)benzenesulfonamide formate [Example 115] | 18 | 3.29
5-chloro-4-(((1S,2S,4S)-4-(3,5-dichlorophenyl)-2-(dimethylamino)cyclohexyl)amino)-2-fluoro-N-(pyrimidin-4-yl)benzenesulfonamide formate [Example 239] | 2.93 | 1.5
CCN(C)[C@H]1CCCC[C@@H]1N1CCOc2cc(S(=O)(=O)Nc3nccs3)c(F)cc21 (racemic) [Example 189, 4-((trans)-2-(ethyl(methyl)amino)cyclohexyl)-6-fluoro-N-(thiazol-2-yl)-3,4-dihydro-2H-benzo[b][1,4]oxazine-7-sulfonamide] | 304 | 23.4
CN(CC(O)CF)[C@H]1CCCC[C@@H]1Nc1cc(F)c(S(=O)(=O)Nc2nccs2)cc1Cl (single isomer, unassigned) [Example 118] | 242 | 8.51
CN(CC(O)CF)[C@H]1CCCC[C@@H]1Nc1cc(F)c(S(=O)(=O)Nc2nccs2)cc1Cl (single isomer, unassigned) [Example 119] | 184 | 10.7
CN(CC(O)C(F)F)[C@H]1CCCC[C@@H]1Nc1cc(F)c(S(=O)(=O)Nc2nccs2)cc1Cl (single isomer, unassigned) [Example 126] | 87.6 | 9.25
CN(CC(O)C(F)F)[C@H]1CCCC[C@@H]1Nc1cc(F)c(S(=O)(=O)Nc2nccs2)cc1Cl (single isomer, unassigned) [Example 127] | 61.5 | 6.58
CN(C)[C@H]1CCC(c2cccc(C(F)(F)F)c2)C[C@@H]1Nc1cc(F)c(S(=O)(=O)Nc2ccncn2)cc1Cl (stereo in doubt) [Example 120, 5-chloro-4-(((1S,2S,5R)-2-(dimethylamino)-5-(3-(trifluoromethyl)phenyl)cyclohexyl)amino)-2-fluoro-N-(pyrimidin-4-yl)benzenesulfonamide] | 26.3 | 4.1
CN(C)[C@H]1CCC(c2cccc(C(F)(F)F)c2)C[C@@H]1Nc1cc(F)c(S(=O)(=O)Nc2ccncn2)cc1Cl (stereo in doubt) [Example 121, 5-chloro-4-(((1S,2S,5S)-2-(dimethylamino)-5-(3-(trifluoromethyl)phenyl)cyclohexyl)amino)-2-fluoro-N-(pyrimidin-4-yl)benzenesulfonamide] | 1170 | 121
O=S(=O)(Nc1nccs1)c1cc(Cl)c(N[C@H]2CCCC[C@@H]2N2CCCC2CO)cc1F (stereo in doubt) [Example 133, 5-chloro-2-fluoro-4-(((1S,2S)-2-((S)-2-(hydroxymethyl)pyrrolidin-1-yl)cyclohexyl)amino)-N-(thiazol-2-yl)benzenesulfonamide] | 20.8 | 3.2
CN(C)[C@H]1CCC(c2ccccc2F)C[C@@H]1Nc1cc(F)c(S(=O)(=O)Nc2nccs2)cc1Cl (stereo in doubt) [Example 173, 5-chloro-4-(((1S,2S,5R)-2-(dimethylamino)-5-(2-fluorophenyl)cyclohexyl)amino)-2-fluoro-N-(thiazol-2-yl)benzenesulfonamide] | 17.7 | 2.6
CN(C)[C@H]1CCC(c2ccccc2F)C[C@@H]1Nc1cc(F)c(S(=O)(=O)Nc2nccs2)cc1Cl (stereo in doubt) [Example 174, 5-chloro-4-(((1S,2S,5S)-2-(dimethylamino)-5-(2-fluorophenyl)cyclohexyl)amino)-2-fluoro-N-(thiazol-2-yl)benzenesulfonamide] | 357 | 50.2
CN(C)[C@H]1CC2C(C[C@@H]1Nc1cc(F)c(S(=O)(=O)Nc3nccs3)cc1Cl)C2(F)F (stereo in doubt) [Example 207, 5-Chloro-4-(((1S,3S,4S,6R)-4-(dimethylamino)-7,7-difluorobicyclo[4.1.0]heptan-3-yl)amino)-2-fluoro-N-(thiazol-2-yl)benzenesulfonamide] | 1600 | 203
CN(C)[C@@H]1CC2C(C[C@H]1Nc1cc(F)c(S(=O)(=O)Nc3nccs3)cc1Cl)C2(F)F (stereo in doubt) [Example 208, 5-Chloro-4-(((1R,3R,4R,6S)-4-(dimethylamino)-7,7-difluorobicyclo[4.1.0]heptan-3-yl)amino)-2-fluoro-N-(thiazol-2-yl)benzenesulfonamide] | 46.7 | 6.12
CN(C)[C@H]1CC2C(C[C@@H]1Nc1cc(F)c(S(=O)(=O)Nc3nccs3)cc1Cl)C2(F)F (stereo in doubt) [Example 209, 5-Chloro-4-(((1R,3S,4S,6S)-4-(dimethylamino)-7,7-difluorobicyclo[4.1.0]heptan-3-yl)amino)-2-fluoro-N-(thiazol-2-yl)benzenesulfonamide] | 160 | 9.25
CN(C)[C@@H]1CC2C(C[C@H]1Nc1cc(F)c(S(=O)(=O)Nc3nccs3)cc1Cl)C2(F)F (stereo in doubt) [Example 210, 5-Chloro-4-(((1S,3R,4R,6R)-4-(dimethylamino)-7,7-difluorobicyclo[4.1.0]heptan-3-yl)amino)-2-fluoro-N-(thiazol-2-yl)benzenesulfonamide] | 2000 | 415
CCN(C)[C@H]1CCCC[C@@H]1Nc1cc(F)c(S(=O)(=O)Nc2nc(C)cs2)cc1Cl [Example 102, 5-chloro-4-(((1S,2S)-2-(ethyl(methyl)amino)cyclohexyl)amino)-2-fluoro-N-(4-methylthiazol-2-yl)benzenesulfonamide formate] | 424 | 66.5
O=S(=O)(Nc1cccc(F)n1)c1cc(Cl)c(N[C@H]2CCCC[C@@H]2N2CC3CC3C2)cc1F (stereo partly drawn) [Example 105, 4-(((1S,2S)-2-(3-azabicyclo[3.1.0]hexan-3-yl)cyclohexyl)amino)-5-chloro-2-fluoro-N-(6-fluoropyridin-2-yl)benzenesulfonamide] | 31.3 | 4.5
O=S(=O)(Nc1cccc(F)n1)c1cc(Cl)c(N[C@@H]2CCCC[C@H]2N2CC3CC3C2)cc1F (stereo partly drawn) [Example 106, 4-(((1R,2R)-2-(3-azabicyclo[3.1.0]hexan-3-yl)cyclohexyl)amino)-5-chloro-2-fluoro-N-(6-fluoropyridin-2-yl)benzenesulfonamide] | 670 | 74.9
CN(C)[C@H]1CCCC[C@@H]1Nc1cc(F)c(S(=O)(=O)Nc2cccc(F)n2)cc1C1CC1 [Example 107, 5-cyclopropyl-4-(((1S,2S)-2-(dimethylamino)cyclohexyl)amino)-2-fluoro-N-(6-fluoropyridin-2-yl)benzenesulfonamide formate] | 137 | 18
O=S(=O)(Nc1ccncn1)c1cc(Cl)c(N[C@H]2CCCC[C@@H]2N2CCCCC2)cc1F [Example 108, 5-chloro-2-fluoro-4-(((1S,2S)-2-(piperidin-1-yl)cyclohexyl)amino)-N-(pyrimidin-4-yl)benzenesulfonamide] | 166 | 22.6
CN1CCC(N(C)[C@H]2CCCC[C@@H]2Nc2cc(F)c(S(=O)(=O)Nc3cccc(F)n3)cc2Cl)CC1 [Example 109, 5-chloro-2-fluoro-N-(6-fluoropyridin-2-yl)-4-(((1S,2S)-2-(methyl(1-methylpiperidin-4-yl)amino)cyclohexyl)amino)benzenesulfonamide] | 50.7 | 8.68
Cc1csc(NS(=O)(=O)c2cc(Cl)c(N[C@H]3CCCC[C@@H]3N(C)CCO)cc2F)n1 [Example 111, 5-chloro-2-fluoro-4-(((1S,2S)-2-((2-hydroxyethyl)(methyl)amino)cyclohexyl)amino)-N-(4-methylthiazol-2-yl)benzenesulfonamide] | 678 | 23.4
CN(C)[C@H]1C[C@@H](C(F)(F)F)CC[C@@H]1Nc1cc(F)c(S(=O)(=O)Nc2ccncn2)cc1Cl [Example 112, 5-chloro-4-(((1S,2S,4S)-2-(dimethylamino)-4-(trifluoromethyl)cyclohexyl)amino)-2-fluoro-N-(pyrimidin-4-yl)benzenesulfonamide] | 229 | 15.1
O=S(=O)(Nc1nccs1)c1cc(Cl)c(N[C@H]2CCCC[C@@H]2N2CCC(F)CC2)cc1F [Example 113, 5-chloro-2-fluoro-4-(((1S,2S)-2-(4-fluoropiperidin-1-yl)cyclohexyl)amino)-N-(thiazol-2-yl)benzenesulfonamide] | 185 | 11.7
CN(C)[C@H]1C[C@@H](c2cccc(C(F)(F)F)c2)CC[C@@H]1Nc1cc(F)c(S(=O)(=O)Nc2ccncn2)cc1F [Example 220, 4-(((1S,2S,4S)-2-(Dimethylamino)-4-(3-(trifluoromethyl)phenyl)cyclohexyl)amino)-2,5-difluoro-N-(pyrimidin-4-yl)benzenesulfonamide] | – | 0.418
